Converted amounts (≈) assume the structure as drawn.

The term Inhibition denotes the drop in the measured response relative to a control, in per cent. The low end stands for a weak effect, the high end for a strong effect. In general, MIC refers to the least concentration at which growth counts as inhibited. Lower therefore signals inhibition by little substance. The term inhibition denotes the change of the read-out against control, counted positive when it falls. Read a low inhibition as a response near the control.

What all share (format): functional
Assay [1] concerns Mycobacterium tuberculosis. Kind of assay: Antimycobacterial activity against INH-resistant Mycobacterium tuberculosis by agar dilution method above 6.25 ug/ml. In general terms: Agar dilution tests growth on a series of plates holding different concentrations.
The subject of assay [2] is Mycobacterium tuberculosis. Description: Antimycobacterial activity against INH-resistant Mycobacterium tuberculosis by agar dilution method.
Assay [3] relates to Mycobacterium tuberculosis. Description: Antimycobacterial activity against INH-resistant Mycobacterium tuberculosis by agar dilution method at 6.25 ug/ml.

Regarding `COc1cc(C2=NN(C(=O)c3ccc([N+](=O)[O-])cc3)C3CCCC23)c(C)cc1OCC(=O)O` (stereo not drawn), the Inhibition in assay [1] stood at 30%. Besides, the MIC in assay [2] was greater than 6.25 µg/mL.

As for `COc1cc(C2=NN(C(=O)c3ccc([N+](=O)[O-])cc3)C(c3ccc(O)cc3)C2)c(C)cc1OCC(=O)O` (stereo not drawn), the Inhibition in assay [1] turned out to be 70%. The same compound yielded an MIC in assay [2] of 6.25 µg/mL (≈ 12.4 µM).

Consider `COc1cc(C2=NN(C(=O)c3ccccc3)C3CCCC23)c(C)cc1OCC(=O)O` (stereo not drawn), for which the Inhibition in assay [1] came to 42%. The compound also showed an MIC in assay [2] greater than 6.25 µg/mL.

For the compound `COc1cc(C2=NN(C(=O)COc3ccc4ccccc4c3)C(Cc3ccccc3)C2)c(C)cc1OCC(=O)O` (stereo not drawn), 0.94 µg/mL (≈ 1.75 µM) was the least that counted as inhibitory in assay [2] (MIC). For the same compound, in assay [3], the inhibition at 6.25 µg/mL was 90%.

In assay [1], `COc1cc(C2=NN(C(=O)c3ccc([N+](=O)[O-])cc3)C(Cc3ccccc3)C2)c(C)cc1OCC(=O)O` (stereo not drawn) had an Inhibition of 50%. In addition, the MIC in assay [2] is greater than 6.25 µg/mL.

As to `COc1cc(C2=NN(C(=O)Cc3ccccc3)C3CCCC23)c(C)cc1OCC(=O)O` (stereo not drawn), the Inhibition in assay [1] turned out to be 24%. Further, the minimal inhibitory concentration (MIC) in assay [2] is greater than 6.25 µg/mL.

For the compound `COc1cc(C2=NN(C(=O)COc3cccc4ccccc34)C3CCCC23)c(C)cc1OCC(=O)O` (stereo not drawn), the Inhibition in assay [1] is 50%. The MIC in assay [2] is greater than 6.25 µg/mL.

In the case of `COc1cc(C2=NN(C(=O)COc3cccc4ccccc34)C(c3ccc(O)cc3)C2)c(C)cc1OCC(=O)O` (stereo not drawn), in assay [1], the Inhibition stood at 58%. The compound further displayed an MIC in assay [2] greater than 6.25 µg/mL.

Regarding `COc1cc(C2=NN(C(=O)COc3ccccc3)C(c3ccc(O)cc3)C2)c(C)cc1OCC(=O)O` (stereo not drawn), in assay [2], the MIC stood at 0.64 µg/mL (≈ 1.3 µM). The compound also displayed an inhibition at 6.25 µg/mL in assay [3] of 99%.

Compound `COc1cc(C2=NN(C(=O)COc3ccccc3)C(Cc3ccccc3)C2)c(C)cc1OCC(=O)O` (stereo not drawn) returned an MIC in assay [2] greater than 6.25 µg/mL. The compound also gave an inhibition at 6.25 µg/mL in assay [3] of 92%.

Regarding `COc1cc(C2=NN(C(=O)Cc3ccccc3)C(Cc3ccccc3)C2)c(C)cc1OCC(=O)O` (stereo not drawn), the Inhibition in assay [1] turned out to be 34%. Besides, in assay [2], the minimal inhibitory concentration (MIC) was greater than 6.25 µg/mL.

For the compound `COc1cc(C2=NN(C(=O)COc3ccc4ccccc4c3)C3CCCC23)c(C)cc1OCC(=O)O` (stereo not drawn), the Inhibition in assay [1] was 94%. In addition, the MIC in assay [2] was found to be 6.25 µg/mL (≈ 12.8 µM).

In assay [2], `COc1cc(C2=NN(C(=O)COc3ccc4ccccc4c3)C(c3ccc(O)cc3)C2)c(C)cc1OCC(=O)O` (stereo not drawn) registered a minimum inhibitory concentration (MIC) of 0.7 µg/mL (≈ 1.29 µM). The compound also registered an inhibition at 6.25 µg/mL in assay [3] of 99%.

Take `COc1cc(C2=NN(C(=O)c3ccccc3)C(c3ccc(O)cc3)C2)c(C)cc1OCC(=O)O` (stereo not drawn): the Inhibition in assay [1] came to 72%. The compound further returned a minimal inhibitory concentration (MIC) in assay [2] greater than 6.25 µg/mL.

In assay [1], `COc1cc(C2=NN(C(=O)COc3cccc4ccccc34)C(Cc3ccccc3)C2)c(C)cc1OCC(=O)O` (stereo not drawn) showed an Inhibition of 20%. Besides, the MIC in assay [2] was greater than 6.25 µg/mL.

Compound `COc1cc(C2=NN(C(=O)Cc3ccccc3)C(c3ccc(O)cc3)C2)c(C)cc1OCC(=O)O` (stereo not drawn) returned an Inhibition in assay [1] of 22%. Moreover, the minimal inhibitory concentration (MIC) in assay [2] is greater than 6.25 µg/mL.

Compound `COc1cc(C2=NN(C(=O)c3ccccc3)C(Cc3ccccc3)C2)c(C)cc1OCC(=O)O` (stereo not drawn) gave an Inhibition in assay [1] of 18%. Besides, the MIC in assay [2] is greater than 6.25 µg/mL.

Take `COc1cc(C2=NN(C(=O)COc3ccccc3)C3CCCC23)c(C)cc1OCC(=O)O` (stereo not drawn): in assay [1], the Inhibition stood at 85%. The MIC in assay [2] was greater than 6.25 µg/mL.

The compound `NNC(=O)c1ccncc1` [ISONIAZID] showed a minimal inhibitory concentration (MIC) in assay [2] of 1.56 µg/mL (≈ 11.4 µM). Besides, the inhibition at 6.25 µg/mL in assay [3] came to 90%.

The values above are taken from ChEMBL document CHEMBL1146905, “Synthesis and evaluation of phenoxy acetic acid derivatives as [corrected] anti-mycobacterial agents” (2006).
